Source: patent US20230065158A1, “OXABICYCLOHEPTANES FOR TREATMENT OF SMALL CELL LUNG CANCER” (Lixte Biotechnology, Inc., priority 2021, published 2023)
“Also recorded” adds a separate entry of the source.

How the values were obtained:
H526 cells = settings: human, 72 h
Source text: To determine specific cytotoxicity, we used Cell Counting Kit-8 (Dojindo Molecular Technologies, Rockville, Md.) as previously described (50).

H446 spheroids = test: H446 spheroid growth, IncuCyte Live-Cell Analysis; type: cell-based; settings: LB100 20 μM, up to 72 hours
Method: FIGS. 2A-2H depict the effect of LB-100 on H446 spheroid growth. FIG. 2A: Morphology of a single spheroid of H446 cells on days one and nine. Spheroids grow continuously and H&E staining is represented. FIG. 2B: Spheroid's growth in response to LB-100 treatment was recorded with IncuCyte Live-Cell Analysis System. FIG. 2C: Cytotoxicity effect of LB100 was recorded with IncuCyte Live-Cell Analysis System in the presence of LB-100 and IncuCyte Cytotox reagent in green fluorescence. […] Scale bar 100 μm. (FIGS. 2E and 2G). Effect of LB100 and carboplatin alone or in combination was monitored using IncuCyte Live Cell system for 70 h.
We further investigated the effect of LB100 and the chemotherapy drugs on spheroids formed by SCLC cells. Three cell lines H524, H69 and H446 were tested. The H524 and H69 cells formed large soft clumps in low-attachment 96 well plates. […] H446 spheroids treated with or without 20 μM LB100 were imaged in brightfield (BF) and using green fluorescence over 72 hours. The size of the spheroids was measured using an automated software algorithm that masked the largest BF in the field of view (label-free, real-time live cell assay for spheroids: IncuCyte bright-field analysis). […]
H446 cells were plated at a density of 10,000 cells per well and spheroid allowed to form (72-hours). […] Spheroids were imaged every 4 hours for 6 days and analyzed using the IncuCyte ZOOM software.

advanced solid tumors = settings: cited from earlier work
H69 cells = test: BiOLOG Phenotype Microarray carbon substrate utilization; type: cell-based; settings: LB100 20 μM overnight
Source text: FIGS. 4A-4F depict a reactome pathway analysis of PamGene PTKs and STKs after LB-100 treatment of H524 cells and Biolog phenotype MicroArray. […] Table includes 10 carbon sources affected by LB-100 (n=3). […] P<0.001 (***) for control (untreated cells) vs. LB-100. FIG. 4D: Amplex Red Glucose/Oxidase assay kit was used to measure glucose level in cell culture media. […] Glucose concentration detected in initial medium and counted as 100%. Subtracting final medium level of glucose from initial glucose medium concentration yielded % glucose in the medium with cells (n=3). Effect of LB-100 on MET phosphorylation. FIG. 4E: H524 and H69 cells were treated overnight with LB-100 (H524—5 μM and H69—20 μM) following by stimulation with 100 ng/ml HGF in 10 min. Cells were collected and lysed for WB analysis with pMET and total MET antibody. Pan-actin was used as loading control (n=3). FIG. 4F: H524 cell lysates (control, LB-100, carboplatin and combination (LB-100/carboplatin) were analyzed by western blots to check phosphorylation status of MET at Ser985 and Tyr1234/1235. Actin was used as a loading control (n=3). […]
Phenotype Microarrays (PMs) use a patented redox chemistry, employing cell respiration as a universal reporter. […] The redox assay provides for both amplification and precise quantitation of phenotypes. […]

[1] = biological target: protein phosphatase 2A (PP2A) (Homo sapiens, UniProt P67775); test: Inhibition of PP2A versus PP1; type: biochemical; settings: PP2A vs PP1
Sequence of protein phosphatase 2A (PP2A) (P67775 whole entry): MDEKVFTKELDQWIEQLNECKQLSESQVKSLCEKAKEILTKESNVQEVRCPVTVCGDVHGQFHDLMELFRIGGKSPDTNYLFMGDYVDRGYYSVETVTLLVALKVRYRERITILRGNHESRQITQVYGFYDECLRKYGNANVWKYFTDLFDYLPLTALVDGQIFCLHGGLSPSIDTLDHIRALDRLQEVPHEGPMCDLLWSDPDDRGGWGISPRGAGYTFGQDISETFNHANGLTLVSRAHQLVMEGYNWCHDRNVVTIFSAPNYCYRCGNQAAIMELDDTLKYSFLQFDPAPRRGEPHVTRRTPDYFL

C[NH+]1CCN(C(=O)C2C(C(=O)O)[C@H]3CC[C@@H]2O3)CC1 (stereo in doubt) [LB-100, 3-[(4-Methylpiperazin-1-yl)carbonyl]-7-oxabicyclo[2.2.1]heptane-2-carboxylic acid]
IC50 (H526 cells): 7.2 µM
spheroid size (bright-field analysis) (H446 spheroids): spheroid shrinkage
tolerability / adverse events (advanced solid tumors; Phase I trial): no notable adverse events; also recorded: well tolerated
patients who achieved stable disease (advanced solid tumors; Phase I, advanced solid tumors): 10 out of 20
reduction of glycogen consumption (H69 cells): more than 2.7 fold
reduction of α-D-Glucose consumption (H69 cells): more than 6 fold
inhibits PP2A more efficiently than protein phosphatase 1 (PP1) [1]: about 80 fold
